Measured values published in patent US20250206732A1, “COMPOUNDS AND METHODS FOR THE TARGETED DEGRADATION OF KRAS” (Arvinas Operations, Inc., priority 2022, published 2025).

Target: T1, AsPC-1 HiBiT-KRASG12D (Homo sapiens, UniProt P01116, G12D)
T1 construct: insert the HiBiT tag onto the N-terminus of one or more of the endogenous KRAS alleles; endogenous in cells; host or cells: AsPC-1 (ATCC CRL-1682), CRISPR-Cas9 knock-in clone, one tagged allele
Assay: HiBiT degradation assay (G12D), AsPC-1 HiBiT-KRASG12D cells
Format: cell-based
Settings: 24 hours treatment; for Dmax: ASPC1, AsPC-1 HiBiT-KRASG12D cells, maximum degradation observed; for DC50: AsPC-1 HiBiT-KRASG12D cells, HiBiT luminescence
In short: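 AsPC-1 cells carried a CRISPR knock-in of an N-terminal HiBiT tag on endogenous KRAS G12D. After 24 h compound treatment at 37 °C (triplicate), viability was read by alamar blue (4 h, fluorescence, normalized to DMSO). HiBiT-KRAS levels were then measured by Nano-Glo HiBiT lytic luminescence after 45 min at room temperature.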

T1 sequence (P01116 1-188 isoform P01116-2 G12D): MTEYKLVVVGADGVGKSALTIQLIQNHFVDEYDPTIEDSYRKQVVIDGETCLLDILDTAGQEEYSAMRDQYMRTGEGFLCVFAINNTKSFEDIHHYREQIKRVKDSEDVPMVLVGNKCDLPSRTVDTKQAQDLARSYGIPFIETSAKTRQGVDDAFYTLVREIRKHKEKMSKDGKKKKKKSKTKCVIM

## CCc1cccc2cc(O)cc(-c3ncc4c(N5CC6CCC(C5)N6)nc(OCCN5CCC(CC6CN(c7cc([C@H](C(=O)N8C[C@H](O)C[C@H]8C(=O)N[C@@H](C)c8ccc(-c9ccnn9C)cc8)C(C)C)on7)C6)CC5)nc4c3F)c12 [Compound 212, (2S,4R)-1-[(2R)-2-(3-{3-[(1-{2-[(4-{3,8-diazabicyclo[3.2.1]octan-3-yl}-7-(8-ethyl-3-hydroxynaphthalen-1-yl)-8-fluoropyrido[4,3-d]pyrimidin-2-yl)oxy]ethyl}piperidin-4-yl)methyl]azetidin-1-yl}-1,2-oxazol-5-yl)-3-methylbutanoyl]-4-hydroxy-N-[(1S)-1-[4-(1-methyl-1H-pyrazol-5-yl)phenyl]ethyl]pyrrolidine-2-carboxamide]
  Dmax: 80 to 100%
  DC50: < 600 nM

## CCc1cccc2cc(O)cc(-c3ncc4c(N5CC6CCC(C5)N6)nc(OC[C@@H]5CC[C@@H](COC(=O)N6CC7(C6)CN(c6cc([C@H](C(=O)N8C[C@H](O)C[C@H]8C(=O)N[C@@H](C)c8ccc(-c9scnc9C)cc8)C(C)C)on6)C7)N5C)nc4c3F)c12 [Compound 213, [(2S,5S)-5-{[(4-{3,8-diazabicyclo[3.2.1]octan-3-yl}-7-(8-ethyl-3-hydroxynaphthalen-1-yl)-8-fluoropyrido[4,3-d]pyrimidin-2-yl)oxy]methyl}-1-methylpyrrolidin-2-yl]methyl 6-{5-[(2R)-1-[(2S,4R)-4-hydroxy-2-{[(1S)-1-[4-(4-methyl-1,3-thiazol-5-yl)phenyl]ethyl]carbamoyl}pyrrolidin-1-yl]-3-methyl-1-oxobutan-2-yl]-1,2-oxazol-3-yl}-2,6-diazaspiro[3.3]heptane-2-carboxylate]
  Dmax: 80 to 100%
  DC50: < 600 nM

## CCc1cccc2cc(O)cc(-c3ncc4c(N5CC6CCC(C5)N6)nc(OCCN5CCC(F)(CN6CCN(c7cc([C@H](C(=O)N8C[C@H](O)C[C@H]8C(=O)N[C@@H](C)c8ccc(-c9scnc9C)cc8)C(C)C)on7)C[C@@H]6C)CC5)nc4c3F)c12 [Compound 214, (2S,4R)-1-[(2R)-2-{3-[(3S)-4-[(1-{2-[(4-{3,8-diazabicyclo[3.2.1]octan-3-yl}-7-(8-ethyl-3-hydroxynaphthalen-1-yl)-8-fluoropyrido[4,3-d]pyrimidin-2-yl)oxy]ethyl}-4-fluoropiperidin-4-yl)methyl]-3-methylpiperazin-1-yl]-1,2-oxazol-5-yl}-3-methylbutanoyl]-4-hydroxy-N-[(1S)-1-[4-(4-methyl-1,3-thiazol-5-yl)phenyl]ethyl]pyrrolidine-2-carboxamide]
  Dmax: 80 to 100%
  DC50: < 600 nM

## CCc1cccc2cc(O)cc(-c3ncc4c(N5CC6CCC(C5)N6)nc(OCCN5CCC(OC6CN(c7cc([C@H](C(=O)N8C[C@H](O)C[C@H]8C(=O)N[C@@H](C)c8ccc(-c9scnc9C)cc8)C(C)C)on7)C6)CC5)nc4c3F)c12 [Compound 215, (2S,4R)-1-[(2R)-2-(3-{3-[(1-{2-[(4-{3,8-diazabicyclo[3.2.1]octan-3-yl}-7-(8-ethyl-3-hydroxynaphthalen-1-yl)-8-fluoropyrido[4,3-d]pyrimidin-2-yl)oxy]ethyl}piperidin-4-yl)oxy]azetidin-1-yl}-1,2-oxazol-5-yl)-3-methylbutanoyl]-4-hydroxy-N-[(1S)-1-[4-(4-methyl-1,3-thiazol-5-yl)phenyl]ethyl]pyrrolidine-2-carboxamide]
  Dmax: 80 to 100%
  DC50: < 600 nM

## CCc1cccc2cc(O)cc(-c3ncc4c(N5CC6CCC(C5)N6)nc(OCCN5CCC(OC6CN(c7cc([C@@H](C(=O)N8C[C@H](O)C[C@H]8C(=O)N[C@@H](C)c8ccc(-c9scnc9C)cc8)C(C)C)on7)C6)CC5)nc4c3F)c12 [Compound 216, (2S,4R)-1-[(2S)-2-(3-{3-[(1-{2-[(4-{3,8-diazabicyclo[3.2.1]octan-3-yl}-7-(8-ethyl-3-hydroxynaphthalen-1-yl)-8-fluoropyrido[4,3-d]pyrimidin-2-yl)oxy]ethyl}piperidin-4-yl)oxy]azetidin-1-yl}-1,2-oxazol-5-yl)-3-methylbutanoyl]-4-hydroxy-N-[(1S)-1-[4-(4-methyl-1,3-thiazol-5-yl)phenyl]ethyl]pyrrolidine-2-carboxamide]
  Dmax: 20 to 60%
  DC50: 1000 to 3000 nM

## C#Cc1c(F)ccc2cc(O)cc(-c3ncc4c(N5CC6CCC(C5)N6)nc(OCCN5CCC(CC6CN(c7cc([C@@H](C(=O)N8C[C@H](O)C[C@H]8C(=O)N[C@@H](C)c8ccc(-c9scnc9C)cc8)C(C)C)on7)C6)CC5)nc4c3F)c12 [Compound 217, (2S,4R)-1-[(2S)-2-(3-{3-[(1-{2-[(4-{3,8-diazabicyclo[3.2.1]octan-3-yl}-7-(8-ethynyl-7-fluoro-3-hydroxynaphthalen-1-yl)-8-fluoropyrido[4,3-d]pyrimidin-2-yl)oxy]ethyl}piperidin-4-yl)methyl]azetidin-1-yl}-1,2-oxazol-5-yl)-3-methylbutanoyl]-4-hydroxy-N-[(1S)-1-[4-(4-methyl-1,3-thiazol-5-yl)phenyl]ethyl]pyrrolidine-2-carboxamide]
  Dmax: 20 to 60%
  DC50: 1000 to 3000 nM

## CCc1cccc2cc(O)cc(-c3ncc4c(N5CC6CCC(C5)N6)nc(OCCC5CCN(CC6CN(c7cc([C@H](C(=O)N8C[C@H](O)C[C@H]8C(=O)N[C@@H](C)c8ccc(-c9scnc9C)cc8)C(C)C)on7)C6)CC5)nc4c3F)c12 [Compound 218, (2S,4R)-1-[(2R)-2-(3-{3-[(4-{2-[(4-{3,8-diazabicyclo[3.2.1]octan-3-yl}-7-(8-ethyl-3-hydroxynaphthalen-1-yl)-8-fluoropyrido[4,3-d]pyrimidin-2-yl)oxy]ethyl}piperidin-1-yl)methyl]azetidin-1-yl}-1,2-oxazol-5-yl)-3-methylbutanoyl]-4-hydroxy-N-[(1S)-1-[4-(4-methyl-1,3-thiazol-5-yl)phenyl]ethyl]pyrrolidine-2-carboxamide]
  Dmax: 80 to 100%
  DC50: < 600 nM

## CCc1cccc2cc(O)cc(-c3ncc4c(N5CC6CCC(C5)N6)nc(OCCC5CCN(CC6CN(c7cc([C@@H](C(=O)N8C[C@H](O)C[C@H]8C(=O)N[C@@H](C)c8ccc(-c9scnc9C)cc8)C(C)C)on7)C6)CC5)nc4c3F)c12 [Compound 219, (2S,4R)-1-[(2S)-2-(3-{3-[(4-{2-[(4-{3,8-diazabicyclo[3.2.1]octan-3-yl}-7-(8-ethyl-3-hydroxynaphthalen-1-yl)-8-fluoropyrido[4,3-d]pyrimidin-2-yl)oxy]ethyl}piperidin-1-yl)methyl]azetidin-1-yl}-1,2-oxazol-5-yl)-3-methylbutanoyl]-4-hydroxy-N-[(1S)-1-[4-(4-methyl-1,3-thiazol-5-yl)phenyl]ethyl]pyrrolidine-2-carboxamide]
  Dmax: 20 to 60%
  DC50: 1000 to 3000 nM

## CCc1cccc2cc(O)cc(-c3ncc4c(N5CC6CCC(C5)N6)nc(OCCN5CCN(CC6CN(c7cc([C@H](C(=O)N8C[C@H](O)C[C@H]8C(=O)N[C@@H](C)c8ccc(-c9scnc9C)cc8)C(C)C)on7)C6)CC5)nc4c3F)c12 [Compound 220, (2S,4R)-1-[(2R)-2-(3-{3-[(4-{2-[(4-{3,8-diazabicyclo[3.2.1]octan-3-yl}-7-(8-ethyl-3-hydroxynaphthalen-1-yl)-8-fluoropyrido[4,3-d]pyrimidin-2-yl)oxy]ethyl}piperazin-1-yl)methyl]azetidin-1-yl}-1,2-oxazol-5-yl)-3-methylbutanoyl]-4-hydroxy-N-[(1S)-1-[4-(4-methyl-1,3-thiazol-5-yl)phenyl]ethyl]pyrrolidine-2-carboxamide]
  Dmax: 80 to 100%
  DC50: < 600 nM

## CCc1cccc2cc(O)cc(-c3ncc4c(N5CC6CCC(C5)N6)nc(OCCN5CCN(CC6CN(c7cc([C@@H](C(=O)N8C[C@H](O)C[C@H]8C(=O)N[C@@H](C)c8ccc(-c9scnc9C)cc8)C(C)C)on7)C6)CC5)nc4c3F)c12 [Compound 221, (2S,4R)-1-[(2S)-2-(3-{3-[(4-{2-[(4-{3,8-diazabicyclo[3.2.1]octan-3-yl}-7-(8-ethyl-3-hydroxynaphthalen-1-yl)-8-fluoropyrido[4,3-d]pyrimidin-2-yl)oxy]ethyl}piperazin-1-yl)methyl]azetidin-1-yl}-1,2-oxazol-5-yl)-3-methylbutanoyl]-4-hydroxy-N-[(1S)-1-[4-(4-methyl-1,3-thiazol-5-yl)phenyl]ethyl]pyrrolidine-2-carboxamide]
  DC50: > 3000 nM

## CCc1cccc2cccc(-c3ncc4c(N5CC6CCC(C5)N6)nc(OC[C@@H]5CC[C@@H](COC(=O)N6CCN(c7cc([C@H](C(=O)N8C[C@H](O)C[C@H]8C(=O)N[C@@H](C)c8ccc(-c9scnc9C)cc8)C(C)C)on7)[C@H](C)C6)N5C)nc4c3F)c12 [Compound 222, [(2S,5S)-5-{[(4-{3,8-diazabicyclo[3.2.1]octan-3-yl}-7-(8-ethylnaphthalen-1-yl)-8-fluoropyrido[4,3-d]pyrimidin-2-yl)oxy]methyl}-1-methylpyrrolidin-2-yl]methyl (3R)-4-{5-[(2R)-1-[(2S,4R)-4-hydroxy-2-{[(1S)-1-[4-(4-methyl-1,3-thiazol-5-yl)phenyl]ethyl]carbamoyl}pyrrolidin-1-yl]-3-methyl-1-oxobutan-2-yl]-1,2-oxazol-3-yl}-3-methylpiperazine-1-carboxylate]
  Dmax: 60 to 80%
  DC50: < 600 nM

## CCc1cccc2cccc(-c3ncc4c(N5CC6CCC(C5)N6)nc(OC[C@@H]5CC[C@@H](COC(=O)N6CC(Oc7cc([C@H](C(=O)N8C[C@H](O)C[C@H]8C(=O)N[C@@H](C)c8ccc(-c9scnc9C)cc8)C(C)C)on7)C6)N5C)nc4c3F)c12 [Compound 223, [(2S,5S)-5-{[(4-{3,8-diazabicyclo[3.2.1]octan-3-yl}-7-(8-ethylnaphthalen-1-yl)-8-fluoropyrido[4,3-d]pyrimidin-2-yl)oxy]methyl}-1-methylpyrrolidin-2-yl]methyl 3-({5-[(2R)-1-[(2S,4R)-4-hydroxy-2-{[(1S)-1-[4-(4-methyl-1,3-thiazol-5-yl)phenyl]ethyl]carbamoyl}pyrrolidin-1-yl]-3-methyl-1-oxobutan-2-yl]-1,2-oxazol-3-yl}oxy)azetidine-1-carboxylate]
  Dmax: 80 to 100%
  DC50: < 600 nM
